Where “and” joins values, the source holds several entries; their conditions need not be identical. Equal values may be shown once.
Columns and labels:
Assay type in all cases: in vivo, SCID mice
[1] = test system: human U2932 DLBCL xenograft; assay: Subcutaneous human U2932 DLBCL xenograft model, combination with dinaciclib (SZ-EF-37-2019); conditions: for antitumor activity (in words) / RTV @ D21 (Mean + SEM) / T/C(%)@D21: Compound 1 30 mg/kg, dinaciclib 20 mg/kg; for mRECIST: SD (stable disease): animals with SD / animals in group; for RTV @ D21 (Mean + SEM) / T/C(%)@D21: day 21
Method: SKM-1 human Myelodysplastic Syndromes (MDS) were maintained in vitro as suspension cultures in RPMI 1640 medium supplemented with 20% fetal bovine serum, 100 U/mL penicillin and 100 µg/mL streptomycin. Cells were maintained at 37° C. in an atmosphere of 5% CO2 in air and passaged twice weekly. Tumor cells growing in an exponential growth phase were harvested and counted for tumor inoculation. Each mouse was inoculated subcutaneously at the right flank region with OCI-AML-3 tumor cells (5×10^6) in 0.2 mL of PBS with 50% matrigel, SKM-1 tumor cells (3×10^7) in 0.2 mL of PBS with 50% matrigel, U2932 tumor cells (1×10^7) in 0.2 mL of PBS with 50% matrigel, for tumor development. Tumor volumes were measured twice weekly in two dimensions using a caliper, and the volume was expressed in mm^3 using the formula: […] Relative tumor volume (RTV) was calculated using the following formula: […] Synergy score was calculated using the following formula described in Clarke R. Issues in experimental design and endpoint analysis in the study of experimental cytotoxic agents in vivo in breast cancer and other models[J]. Breast Cancer Research & Treatment, 1997, 46(2-3):255-278, which is incorporated by reference in its entirety: Synergy score=(([…]); where A: response to treatment A; B: response to treatment B; C: response to vehicle control; AB: combination of treatment A and B. […] Standard NCI procedures were used to calculate tumor parameters. Percent tumor growth inhibition (% T/C) was calculated as the mean RTV of treated tumors (T) divided by the mean RTV of control tumors (C)×100%. […] To confirm the synergistic antitumor effect between Compound 1 and CDK9 inhibitor in DLBCL, we applied combination therapy with Compound 1 plus CDK9 inhibitor dinaciclib in the same human U2932 DLBCL xenograft model, which was established according to embodiment 2.

[2] = test system: human OCI-AML-3 AML xenograft; assay: Subcutaneous human OCI-AML-3 AML xenograft model (SZ-EF-42-2018); conditions: Compound 1 50 mg/kg q.d×15 d p.o., alvocidib 2.5 mg/kg q.d×15 d i.p.; for RTV@ D15 / T/C(%)@ D15: day 15
Method: SKM-1 human Myelodysplastic Syndromes (MDS) were maintained in vitro as suspension cultures in RPMI 1640 medium supplemented with 20% fetal bovine serum, 100 U/mL penicillin and 100 µg/mL streptomycin. Cells were maintained at 37° C. in an atmosphere of 5% CO2 in air and passaged twice weekly. Tumor cells growing in an exponential growth phase were harvested and counted for tumor inoculation. Each mouse was inoculated subcutaneously at the right flank region with OCI-AML-3 tumor cells (5×10^6) in 0.2 mL of PBS with 50% matrigel, SKM-1 tumor cells (3×10^7) in 0.2 mL of PBS with 50% matrigel, U2932 tumor cells (1×10^7) in 0.2 mL of PBS with 50% matrigel, for tumor development. After tumor cell inoculation, the animals were checked daily for morbidity and mortality. At the time of routine monitoring, the animals were checked for any effects of tumor growth and treatments on normal behavior such as mobility, visual estimation of food and water consumption, body weight gain/loss (body weights were measured twice weekly), eye/hair matting and any other abnormal effect. Death and observed clinical signs were recorded on the basis of the numbers of animals within each subset. The entire procedures of dosing as well as tumor and body weight measurement were conducted in a Laminar Flow Cabinet. Tumor volumes were measured twice weekly in two dimensions using a caliper, and the volume was expressed in mm^3 using the formula: Tumor Volume (mm^3)=0.5a×b^2 Relative tumor volume (RTV) was calculated using the following formula: RTV=Vt/V1 Synergy score was calculated using the following formula described in Clarke R. Issues in experimental design and endpoint analysis in the study of experimental cytotoxic agents in vivo in breast cancer and other models[J]. Breast Cancer Research & Treatment, 1997, 46(2-3):255-278, which is incorporated by reference in its entirety: Synergy score=(([…]); where A: response to treatment A; B: response to treatment B; C: response to vehicle control; AB: combination of treatment A and B. Synergy score>1, synergistic; score=1, additive; score<1, antagonistic. Standard NCI procedures were used to calculate tumor parameters. Percent tumor growth inhibition (% T/C) was calculated as the mean RTV of treated tumors (T) divided by the mean RTV of control tumors (C)×100%. […] Alvocidib is a flavonoid alkaloid CDK9 kinase inhibitor, which is the first CDKi under clinical development for the treatment of acute myeloid leukemia. In this study, efficacy of combination treatment with Compound 1 and alvocidib was evaluated in human OCI-AML-3 AML xenograft model (Study No. SZ-EF-42-2018). Dose treatments were started when the mean tumor volume reached 95 mm^3, the dose treatment start day was defined as day 1.

[3] = test system: human SKM-1 MDS xenograft; assay: Subcutaneous human SKM-1 MDS xenograft model (SZ-EF-59-2018); conditions: Compound 1 50 mg/kg q.d×21 d p.o., alvocidib 2.5 mg/kg q.d×21 d i.p.; for RTV@ D21 / T/C(%)@D21: day 21
Method: (§1) SKM-1 human Myelodysplastic Syndromes (MDS) were maintained in vitro as suspension cultures in RPMI 1640 medium supplemented with 20% fetal bovine serum, 100 U/mL penicillin and 100 µg/mL streptomycin. Cells were maintained at 37° C. in an atmosphere of 5% CO2 in air and passaged twice weekly. Tumor cells growing in an exponential growth phase were harvested and counted for tumor inoculation. Each mouse was inoculated subcutaneously at the right flank region with OCI-AML-3 tumor cells (5×10^6) in 0.2 mL of PBS with 50% matrigel, SKM-1 tumor cells (3×10^7) in 0.2 mL of PBS with 50% matrigel, U2932 tumor cells (1×10^7) in 0.2 mL of PBS with 50% matrigel, for tumor development. After tumor cell inoculation, the animals were checked daily for morbidity and mortality. At the time of routine monitoring, the animals were checked for any effects of tumor growth and treatments on normal behavior such as mobility, visual estimation of food and water consumption, body weight gain/loss (body weights were measured twice weekly), eye/hair matting and any other abnormal effect. Death and observed clinical signs were recorded on the basis of the numbers of animals within each subset. The entire procedures of dosing as well as tumor and body weight measurement were conducted in a Laminar Flow Cabinet. Tumor volumes were measured twice weekly in two dimensions using a caliper, and the volume was expressed in mm^3 using the formula: Tumor Volume (mm^3)=0.5a×b^2 Relative tumor volume (RTV) was calculated using the following formula: RTV=Vt/V1 Synergy score was calculated using the following formula described in Clarke R. Issues in experimental design and endpoint analysis in the study of experimental cytotoxic agents in vivo in breast cancer and other models[J]. Breast Cancer Research & Treatment, 1997, 46(2-3):255-278, which is incorporated by reference in its entirety: Synergy score=(([…]); where A: response to treatment A; B: response to treatment B; C: response to vehicle control; AB: combination of treatment A and B. Synergy score>1, synergistic; score=1, additive; score<1, antagonistic. Standard NCI procedures were used to calculate tumor parameters. Percent tumor growth inhibition (% T/C) was calculated as the mean RTV of treated tumors (T) divided by the mean RTV of control tumors (C)×100%. […] In this study, efficacy of combination treatment with Compound 1 and alvocidib was evaluated in human SKM-1 MDS xenograft model (Study No. SZ-EF-59-2018). Dose treatments were started when the mean tumor volume reached 125 mm^3, the dose treatment start day was defined as day 1.

[4] = test system: human U2932 DLBCL xenograft; assay: Subcutaneous human U2932 DLBCL xenograft model, combination with alvocidib (SZ-EF-62-2018); conditions: for antitumor activity (in words) / RTV@ D19 / T/C(%)@D19: Compound 1 50 mg/kg q.d×19 d p.o., alvocidib 2.5 mg/kg q.d×7 d and q.w×2 w i.p.; for RTV@ D19 / T/C(%)@D19: day 19
Method: as §1, with “U2932 DLBCL” for “SKM-1 MDS”, “SZ-EF-62-2018).” for “SZ-EF-59-2018).”

| SMILES | antitumor activity (in words) [1] | mRECIST: PD (progressive disease) ([1]; animals with PD / animals in group) | mRECIST: SD (stable disease) [1] | RTV @ D21 (Mean + SEM) [1] | T/C(%)@D21 [1] [%] | antitumor activity (in words) [2] | RTV@ D15 [2] | T/C(%)@ D15 [2] [%] | antitumor activity (in words) [3] | RTV@ D21 [3] | T/C(%)@D21 [3] | antitumor activity (in words) [4] | RTV@ D19 [4] | T/C(%)@D19 [4] [%] | T/C(%)@D19 ([4]; listed as alvocidib) [%] | occurrence of CR or PR ([4]; single arm) |
| --- | --- | --- | --- | --- | --- | --- | --- | --- | --- | --- | --- | --- | --- | --- | --- | --- |
| CCc1cnn2c(NCc3ccc[n+]([O-])c3)cc(N3CCCC[C@H]3CCO)nc12 [Dinaciclib, dinaciclib] | no antitumor activity | 2/5 | 3/5 | 3.74 ± 0.58 | 71.55 |  |  |  |  |  |  |  |  |  |  |  |
| CN1CC[C@H](c2c(O)cc(O)c3c(=O)cc(-c4ccccc4Cl)oc23)[C@H](O)C1 [Alvocidib, alvocidib] |  |  |  |  |  | moderate antitumor activity | 14.0 ± 1.5 | 58.8 | no antitumor activity | 17.2 ± 2.1 | 78.5% | antitumor activity | 1.19 ± 0.27 | 25.2 | 30.9 | no CR or PR |
| O=C(NS(=O)(=O)c1ccc(NC[C@H]2COCCO2)c([N+](=O)[O-])c1)c1ccc(N2CCN(CC3=C(c4ccc(Cl)cc4)CC4(CCC4)CC3)CC2)cc1Oc1cnc2[nH]ccc2c1 [Compound 1, (S)—N-((4-(((1,4-dioxan-2-yl)methyl)amino)-3-nitrophenyl)sulfonyl)-2-((1H-pyrrolo[2,3-b]pyridin-5-yl)oxy)-4-(4-((6-(4-chlorophenyl)spiro[3.5]non-6-en-7-yl)methyl)piperazin-1-yl)benzamide] | moderate antitumor activity |  | 5/5 SD | 2.79 ± 0.22 | 53.26 | no antitumor activity | 28.6 ± 2.3 | 120.2 | moderate antitumor activity | 14.7 ± 1.5 | 68.3% and 67.3% | antitumor activity | 1.46 ± 0.17 | 30.9 |  |  |
